Assay results as given in US20130203662A1, “Mini-Hepcidin Peptides and Methods of Using Thereof” (priority 2008, published 2013).
Read-outs that look alike come from different tables or passages of the source. Square brackets hold non-standard residues; d marks the D form. Ends that are not written are not given here. Peptide text beside a SMILES is read from it. * marks the point of attachment. Bip = N[C@@H](Cc1ccc(-c2ccccc2)cc1)C(=O)O; Oic = O=C(O)[C@@H]1C[C@@H]2CCCC[C@@H]2N1; X3 = NC(=O)C[C@H](N*)C(c1ccccc1)c1ccccc1; Dip = N[C@H](C(=O)O)C(c1ccccc1)c1ccccc1; 1Nal = N[C@@H](Cc1cccc2ccccc12)C(=O)O; β3hF = N[C@H](CC(=O)O)Cc1ccccc1

Molecular target: T1, ferroportin fused to green fluorescent protein (ECR293/Fpn-GFP cells) (Mus musculus, UniProt Q9JHI9)
T1 sequence (Q9JHI9 1-570): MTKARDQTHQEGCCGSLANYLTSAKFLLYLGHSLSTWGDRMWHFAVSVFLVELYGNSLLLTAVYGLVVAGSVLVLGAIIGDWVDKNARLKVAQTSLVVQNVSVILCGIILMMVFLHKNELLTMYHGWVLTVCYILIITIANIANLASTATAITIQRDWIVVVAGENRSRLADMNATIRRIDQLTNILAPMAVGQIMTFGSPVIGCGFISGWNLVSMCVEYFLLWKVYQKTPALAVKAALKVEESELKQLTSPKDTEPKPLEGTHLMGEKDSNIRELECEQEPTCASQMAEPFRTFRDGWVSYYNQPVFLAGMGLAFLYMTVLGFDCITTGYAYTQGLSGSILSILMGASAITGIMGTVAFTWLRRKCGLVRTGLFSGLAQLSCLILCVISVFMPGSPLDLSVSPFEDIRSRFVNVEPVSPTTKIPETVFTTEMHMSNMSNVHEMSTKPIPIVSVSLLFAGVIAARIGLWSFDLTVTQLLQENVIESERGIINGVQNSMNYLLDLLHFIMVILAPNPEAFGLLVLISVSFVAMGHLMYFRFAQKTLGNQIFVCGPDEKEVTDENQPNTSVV
Test: Flow cytometry of ferroportin-GFP internalization and degradation in ECR293/Fpn-GFP cells
Assay type: cell-based
Details: for DC50: read-out: EC50 (the source's name)
Procedure: In vitro activity may be measured by the dose-dependent loss of fluorescence of cells engineered to display ferroportin fused to green fluorescent protein as in Nemeth et al. (2006) Blood 107:328-33. […]
FLOW CYTOMETRY. The activity of peptides of the present invention was measured by flow cytometry as previously described. See Nemeth et al. (2006) Blood 107:328-333, which is herein incorporated by reference. ECR293/Fpn-GFP, a cell line stably transfected with a ponasterone-inducible ferroportin construct tagged at the C-terminus with green fluorescent protein was used. See Nemeth et al. (2004) Science 306:2090-2093, which is herein incorporated by reference. Briefly, the cells were plated on poly-D-lysine coated plates in the presence of 20 μM FAC, with or without 10 μM ponasterone. After 24 hours, ponasterone was washed off, and cells were treated with peptides for 24 hours. Cells were then trypsinized and resuspended at 1×10^6 cells/ml, and the intensity of green fluorescence was analyzed by flow cytometry. […] Cells not induced with ponasterone to express Fpn-GFP were used to establish a gate to exclude background fluorescence. Cells induced with ponasterone, but not treated with any peptides, were used as the positive control. Each peptide was tested over the range of concentrations (0, 0.01, 0.03, 0.1, 0.3, 1, 3 and 10 μM). Each peptide treatment was repeated independently 3 to 6 times.

[1] = concentration eliciting 50% of maximal loss of fluorescence generated by reference Hep25, 24 hours
[2] = flow-cytometry assay of ferroportin-GFP internalization, FIG. 3

Row | Compound | DC50 [1] | further results
1 | CC[C@H](C)[C@H](NC(=O)[C@H](CS)NC(=O)[C@@H](NC(=O)[C@@H]1CCCN1C(=O)[C@H](Cc1ccccc1)NC(=O)[C@H](Cc1c[nH]cn1)NC(=O)[C@@H](NC(=O)[C@@H](N)CC(=O)O)[C@@H](C)O)[C@@H](C)CC)C(=O)N[C@H](CC(=O)N1CCC[C@@H]1C(=O)N1CCC[C@H]1C(=O)N[C@@H](CCCCN)C(N)=O)Cc1ccccc1 [Pr19] (H-DTHFPICI[β3hF][dP]PK-NH2) | – | EC50 [1]: 700 nM
2 | CC[C@H](C)[C@H](NC(=O)[C@@H](NC(=O)[C@@H](NC(=O)[C@@H]1CCCN1C(=O)[C@H](Cc1ccccc1)NC(=O)[C@H](Cc1c[nH]cn1)NC(=O)[C@@H](NC(=O)[C@@H](N)CC(=O)O)[C@@H](C)O)[C@@H](C)CC)C(C)(C)S)C(=O)N[C@@H](Cc1ccccc1)C(N)=O [Pen] | 700 nM | –
3 | CC[C@H](C)[C@H](NC(=O)[C@H](CS)NC(=O)[C@@H](NC(=O)[C@@H]1CCCN1C(=O)[C@H](Cc1ccccc1)NC(=O)[C@H](Cc1c[nH]cn1)NC(=O)[C@@H](NC(=O)[C@@H](N)CC(=O)O)[C@@H](C)O)[C@@H](C)CC)C(=O)N[C@@H](Cc1ccccc1)C(=O)N1CCC[C@@H]1C(=O)N1CCC[C@H]1C(=O)N[C@@H](CCCCN)C(N)=O [Pr13] | 100 nM | –
4 | CC[C@H](C)[C@H](NC(=O)[C@H](CS)NC(=O)[C@@H](NC(=O)[C@@H]1CCCN1C(=O)[C@H](Cc1ccccc1)NC(=O)[C@H](Cc1c[nH]cn1)NC(=O)[C@@H](NC(=O)[C@@H](N)CC(=O)O)[C@@H](C)O)[C@@H](C)CC)C(=O)N[C@@H](Cc1ccccc1)C(=O)N1CCC[C@@H]1C(=O)N1CCC[C@H]1C(=O)N[C@@H](CCCNC(=N)N)C(N)=O [Pr14] | 90 nM | –
5 | CC[C@H](C)[C@H](NC(=O)[C@H](CS)NC(=O)[C@@H](NC(=O)[C@@H]1CCCN1C(=O)[C@H](Cc1ccccc1)NC(=O)[C@H](Cc1c[nH]cn1)NC(=O)[C@@H](NC(=O)[C@@H](N)CC(=O)O)[C@@H](C)O)[C@@H](C)CC)C(=O)N[C@@H](CC(N)=O)C(c1ccccc1)c1ccccc1 [F9bhDpa] (H-DTHFPICI-X3) | – | EC50 [1]: 100 nM
6 | CC[C@H](C)[C@H](NC(=O)[C@@H]1CCCN1C(=O)[C@@H](N)Cc1ccccc1)C(=O)N[C@@H](CS)C(N)=O [Hep4] (H-FPIC-NH2) | > 10000 nM | –
7 | CC[C@H](C)[C@@H]1NC(=O)[C@@H](NC(=O)[C@@H](NC(=O)[C@@H]2CCCN2C(=O)[C@H](Cc2ccccc2)NC(=O)[C@H](Cc2c[nH]cn2)NC(=O)[C@@H](NC(=O)[C@@H](N)CC(=O)O)[C@@H](C)O)[C@@H](C)CC)CSSC[C@@H](C(=O)N[C@@H](CCCCN)C(=O)N[C@H](C(=O)O)[C@@H](C)O)NC(=O)[C@@H]2CSSC[C@@H]3NC(=O)[C@@H]4CSSC[C@H](NC(=O)[C@H](Cc5ccccc5)NC1=O)C(=O)N[C@@H](CSSC[C@H](NC(=O)[C@H](CCCCN)NC(=O)[C@H](CO)NC(=O)[C@H](CCCNC(=N)N)NC(=O)[C@H](Cc1c[nH]cn1)NC3=O)C(=O)NCC(=O)N[C@@H](CCSC)C(=O)N2)C(=O)NCC(=O)N4 [Hep25, reference compound] | 10 nM | –
8 | CC[C@H](C)[C@H](NC(=O)[C@H](CS)NC(=O)[C@@H](NC(=O)[C@@H]1CCCN1C(=O)[C@H](Cc1ccccc1)NC(=O)[C@H](Cc1c[nH]cn1)NC(=O)[C@@H](NC(=O)[C@@H](N)CC(=O)O)[C@@H](C)O)[C@@H](C)CC)C(=O)N[C@H](C(N)=O)C(c1ccccc1)c1ccccc1 [F9Dpa] (H-DTHFPICI[Dip]-NH2) | 70 nM | –
9 | CC[C@H](C)[C@H](NC(=O)[C@H](CCS)NC(=O)[C@@H](NC(=O)[C@@H]1CCCN1C(=O)[C@H](Cc1ccccc1)NC(=O)[C@H](Cc1c[nH]cn1)NC(=O)[C@@H](NC(=O)[C@@H](N)CC(=O)O)[C@@H](C)O)[C@@H](C)CC)C(=O)N[C@@H](Cc1ccccc1)C(N)=O [homoC] | 900 nM | –
10 | CC[C@H](C)[C@H](NC(=O)[C@H](CS)NC(=O)[C@@H](NC(=O)[C@@H]1CCCN1C(=O)[C@H](Cc1ccccc1)NC(=O)[C@H](Cc1c[nH]cn1)NC(=O)[C@@H](NC(=O)[C@@H](N)CC(=O)O)[C@@H](C)O)[C@@H](C)CC)C(=O)N[C@@H](Cc1ccccc1)C(=O)N1CCC[C@H]1CC(=O)N1CCC[C@H]1C(=O)N[C@@H](CCCNC(=N)N)C(N)=O [Pr16] | – | EC50 [1]: 50 nM
11 | CC[C@H](C)[C@H](NC(=O)[C@H](CS)NC(=O)[C@@H](NC(=O)[C@@H]1CCCN1C(=O)[C@H](Cc1ccccc1)NC(=O)[C@H](Cc1c[nH]cn1)NC(=O)[C@@H](NC(=O)[C@@H](N)CC(=O)O)[C@@H](C)O)[C@@H](C)CC)C(=O)N[C@@H](Cc1cccc2ccccc12)C(N)=O [F91Nal] (H-DTHFPICI[1Nal]-NH2; N-terminus assumed) | 200 nM | –
12 | T2A: Hep25 with alanine substitution of residue T2 (DAHFPICIFCCGCCHRSKCGMCCKT) | – | relative hepcidin activity of substitutions in Hep25 (Hep25 variants, FIG. 1, 2A, 2B): did not substantially impact hepcidin activity
13 | C[C@@H](O)[C@H](NC(=O)[C@@H](N)CC(=O)O)C(=O)N[C@@H](Cc1c[nH]cn1)C(=O)N[C@H](C(=O)N1CCC[C@H]1C(=O)N[C@H](CCCNC(=N)N)C(=O)N[C@@H](CS)C(=O)N[C@H](CCCNC(=N)N)C(=O)N[C@H](C(N)=O)C(c1ccccc1)c1ccccc1)C(c1ccccc1)c1ccccc1 [Pr43] (H-DTH[Dip]P[dR]C[dR][Dip]-NH2) | – | EC50 [1]: 200 nM
14 | CC[C@H](C)[C@H](NC(=O)[C@H](CS)NC(=O)[C@@H](NC(=O)[C@@H]1CCCN1C(=O)[C@H](Cc1ccccc1)NC(=O)[C@H](Cc1c[nH]cn1)NC(=O)[C@@H](NC(=O)[C@@H](N)CC(=O)O)[C@@H](C)O)[C@@H](C)CC)C(=O)N[C@H](CC(N)=O)Cc1ccccc1 [F9bhPhe] | 150 nM | –
15 | CC[C@H](C)[C@H](NC(=O)[C@H](CS)NC(=O)[C@@H](NC(=O)[C@@H]1CCCN1C(=O)[C@H](Cc1ccccc1)NC(=O)[C@H](Cc1c[nH]cn1)NC(=O)[C@@H](NC(=O)[C@@H](N)CC(=O)O)[C@@H](C)O)[C@@H](C)CC)C(=O)N[C@H](CC(=O)N1CCC[C@@H]1C(=O)N1CCC[C@H]1C(=O)N[C@@H](CCCNC(=N)N)C(N)=O)Cc1ccccc1 [Pr20] (H-DTHFPICI[β3hF][dP]PR-NH2) | 200 nM | –
16 | DTHFPICI-NH2 [Hep8] | 2000 nM | –
17 | DTHFPIAIFC-NH2 [Hep10] | 100 nM | hepcidin activity of mini-hepcidins relative to Hep25 (FIG. 3 and FIG. 4): quite active; potency relative to Hep25 on a mass basis (times less potent) [2]: about 4 times; potency relative to Hep25 on a molar basis (times less potent) [2]: about 10 times
18 | CC[C@H](C)[C@H](NC(=O)[C@H](CS)NC(=O)[C@@H](NC(=O)[C@@H]1CCCN1C(=O)[C@H](Cc1ccccc1)NC(=O)[C@H](Cc1c[nH]cn1)NC(=O)[C@@H](NC(=O)[C@@H](N)CC(=O)O)[C@@H](C)O)[C@@H](C)CC)C(=O)N[C@@H](Cc1ccc(-c2ccccc2)cc1)C(N)=O [F9Bip] (H-DTHFPICI[Bip]-NH2; N-terminus assumed) | 150 nM | –
19 | HFPIC-NH2 [Hep5] | > 10000 nM | –
20 | CC[C@H](C)[C@H](NC(=O)[C@H](CS)NC(=O)[C@@H](NC(=O)[C@@H]1CCCN1C(=O)[C@@H](NC(=O)[C@@H](N)CC(=O)O)C(c1ccccc1)c1ccccc1)[C@@H](C)CC)C(=O)N[C@H](C(N)=O)C(c1ccccc1)c1ccccc1 [Pr41] (H-D[Dip]PICI[Dip]-NH2) | – | EC50: 300 nM
21 | CC[C@H](C)[C@H](NC(=O)[C@H](CS)NC(=O)[C@@H](NC(=O)[C@@H]1CCCN1C(=O)[C@@H](NC(=O)[C@H](Cc1c[nH]cn1)NC(=O)[C@@H](NC(=O)[C@@H](N)CC(=O)O)[C@@H](C)O)C(c1ccccc1)c1ccccc1)[C@@H](C)CC)C(=O)N[C@H](C(N)=O)C(c1ccccc1)c1ccccc1 [Pr39] (H-DTH[Dip]PICI[Dip]-NH2) | – | EC50 [1]: 35 nM
22 | CC[C@H](C)[C@H](NC(=O)[C@H](CS)NC(=O)[C@@H](NC(=O)[C@@H]1CCCN1C(=O)[C@H](Cc1ccccc1)NC(=O)[C@H](Cc1c[nH]cn1)NC(=O)[C@@H](NC(=O)[C@@H](N)CC(=O)O)[C@@H](C)O)[C@@H](C)CC)C(=O)N[C@@H](Cc1ccccc1)C(=O)N1CCC[C@@H]1C(=O)N1CCC[C@H]1CC(=O)N[C@@H](CCCNC(=N)N)C(N)=O [Pr18] | – | EC50 [1]: 1000 nM
23 | HFPICIF-NH2 [Hep7ΔDT] | 700 nM | –
24 | CC[C@H](C)[C@H](NC(=O)[C@H](CS)NC(=O)[C@@H](NC(=O)[C@@H]1C[C@@H]2CCCC[C@@H]2N1C(=O)[C@@H](NC(=O)[C@H](Cc1c[nH]cn1)NC(=O)[C@@H](NC(=O)[C@@H](N)CC(=O)O)[C@@H](C)O)C(c1ccccc1)c1ccccc1)[C@@H](C)CC)C(=O)N[C@H](C(N)=O)C(c1ccccc1)c1ccccc1 [Pr45] (H-DTH[Dip][Oic]ICI[Dip]-NH2; N-terminus assumed) | 150 nM | –
